The values below come from EP0908457B1, “3-(1,2-benzisothiazol- and isoxazol-5-Y1)-2,4(1H,3H)-pyrimidinedione or thione and 3-(1,2-benzisothiazol- and isoxazol-5-y1)-4(3H)-pyrimidinone or thione herbicidal agents” (BASF AKTIENGESELLSCHAFT, priority 1997, dated 1999).

Values joined by “and” are separate entries in the source; they are usually repeats but may differ in a detail not shown here. Equal entries are not always repeated.

Common to all, as to assay type: in vivo
The test system of assay [1] is Echinochloa oryzoides (Ard.) Fritsch. Briefly: Preemergence weed control under flooded paddy conditions, ECHORC (Watergrass (Calif.)). On herbicidal effect rating, ECHORC: meaning of each grade not given here. To be noted: for ECHORC: herbicidal effect rating 0-9, three to four weeks after treatment.
Assay [2] concerns Monochoria vaginalis, Presl. Briefly: Preemergence weed control under flooded paddy conditions, MOOVA (Monochoria). On herbicidal effect rating, MOOVA: meaning of each grade not given here. As to conditions: for MOOVA: preemergence weeds, herbicidal effect rating 0-9, three to four weeks after treatment; for MOOVA / MOOVA herbicidal rating: flooded paddy; for MOOVA herbicidal rating: preemergence, rated three to four weeks after treatment.
In a further assay the test system is Sagittaria pygmaea, L. Briefly: Preemergence weed control under flooded paddy conditions, SAGPY (Arrowhead (Pygmaea)). On herbicidal effect rating, SAGPY: meaning of each grade not given here. As to conditions: for SAGPY: herbicidal effect rating 0-9, three to four weeks after treatment.
In assay [3] the test system is Cyperus serotinus, Rottb. Briefly: Preemergence weed control under flooded paddy conditions, CYPSE (Flatsedge). On herbicidal effect rating, CYPSE: meaning of each grade not given here. To be noted: for herbicidal effect rating, CYPSE / CYPSE herbicidal rating: rated three to four weeks after treatment; for CYPSE: herbicidal effect rating 0-9, three to four weeks after treatment.
A further assay concerns Cyperus iria. Briefly: Preemergence weed control under flooded paddy conditions, CYPIR (Rice Flatsedge). On herbicidal effect rating, CYPIR: meaning of each grade not given here. To be noted: flooded paddy; for herbicidal effect rating, CYPIR / CYPIR herbicidal rating: rated three to four weeks after treatment; for CYPIR: herbicidal effect rating 0-9, three to four weeks after treatment.
[4] abbreviates: 0.1250 kg/ha, preemergence, flooded paddy, rated three to four weeks after treatment.
The mark [5] stands for this setting: 0.2500 kg/ha, preemergence, flooded paddy, rated three to four weeks after treatment.
Where [6] appears, read: Rate 0.0320 kg/ha, preemergence weeds, flooded paddy, rated three to four weeks after treatment.
[7] abbreviates: Rate 0.0620 kg/ha, preemergence weeds, flooded paddy, rated three to four weeks after treatment.
Where [8] appears, read: Rate 0.1250 kg/ha, preemergence weeds, flooded paddy, rated three to four weeks after treatment.
Setting [9] is: Rate 0.2500 kg/ha, preemergence weeds, flooded paddy, rated three to four weeks after treatment.
[10] abbreviates: Rate 0.0320 kg/ha, preemergence weeds.
[11] abbreviates: Rate 0.0620 kg/ha, preemergence weeds.
[12] abbreviates: Rate 0.1250 kg/ha, preemergence weeds.
[13] abbreviates: Rate 0.2500 kg/ha, preemergence weeds.
[14] abbreviates: 0.0320 kg/ha, preemergence weeds, flooded paddy.
[15] abbreviates: 0.0620 kg/ha, preemergence weeds, flooded paddy.
[16] abbreviates: 0.1250 kg/ha, preemergence weeds, flooded paddy.
Where [17] appears, read: 0.2500 kg/ha, preemergence weeds, flooded paddy.
Where [18] appears, read: 0.0320 kg/ha, preemergence weeds.
[19] abbreviates: 0.0620 kg/ha, preemergence weeds.
[20] abbreviates: 0.1250 kg/ha, preemergence weeds.
Where [21] appears, read: 0.2500 kg/ha, preemergence weeds.
[22] abbreviates: 0.0320 kg/ha, preemergence, flooded paddy, rated three to four weeks after treatment.
Setting [23] is: 0.0620 kg/ha, preemergence, flooded paddy, rated three to four weeks after treatment.
Where [24] appears, read: Rate 0.0320 kg/ha, preemergence, flooded paddy, rated three to four weeks after treatment.
[25] abbreviates: Rate 0.0620 kg/ha, preemergence, flooded paddy, rated three to four weeks after treatment.
The mark [26] stands for this setting: Rate 0.1250 kg/ha, preemergence, flooded paddy, rated three to four weeks after treatment.
Where [27] appears, read: Rate 0.2500 kg/ha, preemergence, flooded paddy, rated three to four weeks after treatment.
The mark [28] stands for this setting: Rate 0.0320 kg/ha, preemergence.
[29] abbreviates: Rate 0.0620 kg/ha, preemergence.
The mark [30] stands for this setting: Rate 0.1250 kg/ha, preemergence.
[31] abbreviates: Rate 0.2500 kg/ha, preemergence.

With `Cc1ccc(OC(C)C(=O)[O-])c(-c2nsc3ccc(-n4c(=O)cc(C(F)(F)F)n(C)c4=O)cc23)c1.[Na+]` (racemic) [Example 82, Sodium 2-{{2-{5-[3,6-dihydro-3-methyl-2,6-dioxo-4-(trifluoromethyl)-1(2H)-pyrimidinyl]-1,2-benzisothiazol-3-yl}-p-tolyl}oxy}propionate, DL-], the “herbicidal effect rating, ECHORC” value is 9.0 in assay [1] (0.0313 kg/ha, preemergence, flooded paddy, rated three to four weeks after treatment); 9.0 in assay [1] (0.0625 kg/ha, preemergence, flooded paddy, rated three to four weeks after treatment); 9.0 in assay [1] (setting [4]); 9.0 in assay [1] (setting [5]).

With `COC(=O)[C@@H](C)Oc1ccc(C)cc1-c1nsc2ccc(-n3c(=O)cc(C(F)(F)F)n(C)c3=O)cc12` [Example 14, Methyl 2-{{2-{5-[3,6-dihydro-3-methyl-2,6-dioxo-4-(trifluoromethyl)-1(2H)-pyrimidinyl]-1,2-benzisothiazol-3-yl}-p-tolyl}oxy}propionate, (R)-], the “herbicidal effect rating, ECHORC” value in assay [1] (in vivo) is 7.5 and 6.5 and 5.0 and 4.0. The “herbicidal effect rating, MOOVA” value in assay [2] (in vivo) came out at 9.0. Besides, the “herbicidal effect rating, SAGPY” value with Sagittaria pygmaea, L. (in vivo) worked out at 0.0.

On to `Cc1ccc(OCC(=O)NS(=O)(=O)CCl)c(-c2nsc3ccc(-n4c(=O)cc(C(F)(F)F)n(C)c4=O)cc23)c1` [Example 343], for which the “herbicidal effect rating, ECHORC” value in assay [1] (setting [6]) came to 3.0; in assay [1] (setting [7]), 6.0; in assay [1] (setting [8]) it was 7.0; in assay [1] (setting [9]), 9.0. For the same compound, the “herbicidal effect rating, CYPSE” value is reported as 0.0 in assay [3] (setting [10]), 3.0 in assay [3] (setting [11]), 4.0 in assay [3] (setting [12]) and 6.0 in assay [3] (setting [13]). For the same compound, the “herbicidal effect rating, CYPIR” value worked out at 0.0 with Cyperus iria (setting [10]), 0.0 in the assay on Cyperus iria (setting [11]), 0.0 in the assay on Cyperus iria (setting [12]) and 6.0 in the assay with Cyperus iria (setting [13]). The “herbicidal effect rating, SAGPY” value in the assay on Sagittaria pygmaea, L. (setting [6]) is on record as 0.0; in the assay on Sagittaria pygmaea, L. (setting [7]), 0.0; in the assay on Sagittaria pygmaea, L. (setting [8]) it was 0.0; in the assay on Sagittaria pygmaea, L. (setting [9]) it was 3.0.

As to `CC(OS(=O)(=O)C(C)C)c1nsc2ccc(-n3c(=O)cc(C(F)(F)F)n(C)c3=O)cc12` (stereo not drawn) [Example 413, 2,4(1H,3H)-Pyrimidinedione, 3-[3-(1-hydroxyethyl)-1,2-benzisothiazol-5-yl]-1-methyl-6-(trifluoromethyl)-, 1-methylethanesulfonate (ester)], the ECHORC is recorded as 0.0 in assay [1] (setting [14]), 0.0 in assay [1] (setting [15]), 0.0 in assay [1] (setting [16]) and 6.0 in assay [1] (setting [17]). Besides, the CYPSE was 0.0 in assay [3] (setting [18]), 3.0 in assay [3] (setting [19]), 5.0 in assay [3] (setting [20]) and 9.0 in assay [3] (setting [21]). In addition, the MOOVA in assay [2] (0.0320 kg/ha) was determined as 7.0; in assay [2] (0.0620 kg/ha), 9.0; in assay [2] (0.1250 kg/ha) it was 9.0; in assay [2] (0.2500 kg/ha), 9.0. For the same compound, the CYPIR in the assay on Cyperus iria (setting [18]) is reported as 0.0; in the assay with Cyperus iria (setting [19]) it was 2.0; with Cyperus iria (setting [20]), 5.0; in the assay on Cyperus iria (setting [21]) it was 7.0.

For `CC(=O)OCCCSC(SCCCOC(C)=O)c1nsc2ccc(-n3c(=O)cc(C(F)(F)F)n(C)c3=O)cc12` [Example 426, 1,2-Benzisothiazole-3-carboxaldehyde, 5-[3,6-dihydro-3-methyl-2,6-dioxo-4-(trifluoromethyl)-1(2H)-pyrimidinyl]-, 3-[bis(3-hydroxypropyl)dithioacetal], diacetate (diester)], the ECHORC in assay [1] (setting [14]) is 5.0; in assay [1] (setting [15]), 5.0; in assay [1] (setting [16]) it was 5.0; in assay [1] (setting [17]), 9.0. Further, the CYPSE in assay [3] (setting [18]) is listed as 0.0; in assay [3] (setting [19]) it was 0.0; in assay [3] (setting [20]) it was 0.0; in assay [3] (setting [21]), 2.0. The CYPIR stood at 5.0 in the assay with Cyperus iria (setting [18]), 7.0 with Cyperus iria (setting [19]), 7.0 with Cyperus iria (setting [20]) and 9.0 in the assay with Cyperus iria (setting [21]). Moreover, the SAGPY turned out to be 0.0 in the assay with Sagittaria pygmaea, L. (setting [14]); 2.0 in the assay with Sagittaria pygmaea, L. (setting [15]); 4.0 in the assay on Sagittaria pygmaea, L. (setting [16]); 4.0 in the assay with Sagittaria pygmaea, L. (setting [17]).

`COCC(=O)OCc1nsc2ccc(-n3c(=O)cc(C(F)(F)F)n(C)c3=O)cc12` [Example 495, 2,4(1H,3H)-Pyrimidinedione, 3-[3-(hydroxymethyl)-1,2-benzisothiazol-5-yl]-1-methyl-6-(trifluoromethyl)-, methoxyacetate (ester)]: the ECHORC herbicidal rating was 3.0 in assay [1] (setting [22]), 4.0 in assay [1] (setting [23]), 5.0 in assay [1] (setting [4]) and 7.0 in assay [1] (setting [5]). Moreover, the MOOVA herbicidal rating is recorded as 7.0 in assay [2] (0.0320 kg/ha), 7.0 in assay [2] (0.0620 kg/ha), 9.0 in assay [2] (0.1250 kg/ha) and 9.0 in assay [2] (0.2500 kg/ha). Further, the CYPIR herbicidal rating with Cyperus iria (0.0320 kg/ha, preemergence) is recorded as 6.0; in the assay on Cyperus iria (0.0620 kg/ha, preemergence) it was 6.0; in the assay with Cyperus iria (0.1250 kg/ha, preemergence), 7.0; in the assay with Cyperus iria (0.2500 kg/ha, preemergence) it was 9.0. In addition, the SAGPY herbicidal rating in the assay with Sagittaria pygmaea, L. (setting [22]) was found to be 0.0; in the assay with Sagittaria pygmaea, L. (setting [23]) it was 0.0; with Sagittaria pygmaea, L. (setting [4]), 3.0.

For `CC(C)N(C(C)C)S(=O)(=O)NC(=O)C(C)(C)c1nsc2ccc(-n3c(=O)cc(C(F)(F)F)n(C)c3=O)cc12` [Example 511, 1,2-Benzisothiazole-3-acetamide, 5-[3,6-dihydro-3-methyl-2,6-dioxo-4-(trifluoromethyl)-1(2H)-pyrimidinyl]-N-(diisopropylsulfamoyl)-alpha, alpha-dimethyl-], the ECHORC herbicidal rating in assay [1] (setting [22]) is recorded as 0.0; in assay [1] (setting [23]), 2.0; in assay [1] (setting [4]), 5.0; in assay [1] (setting [5]) it was 7.0. Also, the CYPSE herbicidal rating in assay [3] (0.0320 kg/ha, preemergence) was found to be 0.0; in assay [3] (0.0620 kg/ha, preemergence) it was 0.0; in assay [3] (0.1250 kg/ha, preemergence), 3.0; in assay [3] (0.2500 kg/ha, preemergence) it was 3.0. The CYPIR herbicidal rating in the assay with Cyperus iria (0.0320 kg/ha, preemergence) came to 0.0; in the assay on Cyperus iria (0.0620 kg/ha, preemergence) it was 0.0; in the assay on Cyperus iria (0.1250 kg/ha, preemergence), 2.0; in the assay on Cyperus iria (0.2500 kg/ha, preemergence), 7.0. The SAGPY herbicidal rating in the assay on Sagittaria pygmaea, L. (setting [22]) is 0.0; with Sagittaria pygmaea, L. (setting [23]), 0.0; in the assay on Sagittaria pygmaea, L. (setting [4]), 0.0; with Sagittaria pygmaea, L. (setting [5]), 7.0.

On to `CC(=O)OCCOC(=O)COc1ccc(C)cc1-c1nsc2ccc(-n3c(=O)cc(C(F)(F)F)n(C)c3=O)cc12` [Example 578, Acetic acid, {{2-{5-[3,6-dihydro-3-methyl-2,6-dioxo-4-(trifluoromethyl)-1(2H)-pyrimidinyl]-1,2-benzisothiazol-3-yl}-p-tolyl}oxy}-, 2-hydroxyethyl ester, acetate (ester)], for which the “herbicidal effect rating, ECHORC” value in assay [1] (setting [24]) amounted to 5.0; in assay [1] (setting [25]) it was 6.0; in assay [1] (setting [26]), 7.0; in assay [1] (setting [27]), 9.0. The “herbicidal effect rating, CYPSE” value in assay [3] (setting [28]) was 3.0; in assay [3] (setting [29]), 6.0; in assay [3] (setting [30]), 6.0; in assay [3] (setting [31]), 9.0. In addition, the “herbicidal effect rating, CYPIR” value with Cyperus iria (setting [28]) is reported as 4.0; in the assay with Cyperus iria (setting [29]) it was 5.0; in the assay with Cyperus iria (setting [30]), 5.0; in the assay with Cyperus iria (setting [31]), 7.0. Besides, the “herbicidal effect rating, SAGPY” value was found to be 3.0 in the assay on Sagittaria pygmaea, L. (setting [24]); 6.0 in the assay with Sagittaria pygmaea, L. (setting [25]); 6.0 with Sagittaria pygmaea, L. (setting [26]); 9.0 in the assay on Sagittaria pygmaea, L. (setting [27]).
